Species on record: Rattus norvegicus
Experiment: DrugMatrix - Regimen: Daily Repeat
Format: toxicity, organism-based, Sprague-Dawley
Set-up: regimen Daily Repeat, gender Male, age 6-8 weeks
Conditions: in vivo, po, 85 mg/kg, route oral GAVAGE, dose level Low, vehicle .5 % CMC; for ABSOLUTE BASOPHIL / ABSOLUTE EOSINOPHIL / ABSOLUTE LYMPHOCYTE / ABSOLUTE MONOCYTE / ABSOLUTE SEGMENTED NEUTROPHIL / BASOPHIL / EOSINOPHIL / ERYTHROCYTE COUNT / HEMATOCRIT / HEMOGLOBIN / LEUKOCYTE COUNT / LYMPHOCYTE / MEAN CORPUSCULAR HEMOGLOBIN / MEAN CORPUSCULAR HEMOGLOBIN CONCENTRATION / MEAN CORPUSCULAR VOLUME / MONOCYTE / NEUTROPHIL / NUCLEATED RED BLOOD CELLS / PLATELET COUNT: tissue Blood; for ALANINE AMINOTRANSFERASE / ALBUMIN / ALKALINE PHOSPHATASE / ASPARTATE AMINOTRANSFERASE / BLOOD UREA NITROGEN / CARBON DIOXIDE / CHLORIDE / CHOLESTEROL / CREATINE PHOSPHOKINASE / CREATININE / GLUCOSE / LACTATE DEHYDROGENASE / LIPASE / PHOSPHORUS / POTASSIUM / SODIUM / TOTAL BILIRUBIN / TOTAL PROTEIN / URIC ACID: tissue Plasma

CCCN(CCC)C(=O)C(CCC(=O)O)NC(=O)c1ccccc1 (stereo unspecified) [PROGLUMIDE]
ABSOLUTE BASOPHIL (72 h, time 3 day): 0 CELLS/uL
ABSOLUTE EOSINOPHIL (72 h, time 3 day): 331.33 CELLS/uL
ABSOLUTE LYMPHOCYTE (72 h, time 3 day): 13210.67 CELLS/uL
ABSOLUTE MONOCYTE (72 h, time 3 day): 258 CELLS/uL
ABSOLUTE SEGMENTED NEUTROPHIL (72 h, time 3 day): 933.33 CELLS/uL
BASOPHIL (72 h, time 3 day): 0%
EOSINOPHIL (72 h, time 3 day): 2.33%
ERYTHROCYTE COUNT (72 h, time 3 day): 5.4 x10E6/uL
HEMATOCRIT (72 h, time 3 day): 34.93%
HEMOGLOBIN (72 h, time 3 day): 13.17 G/DL
LEUKOCYTE COUNT (72 h, time 3 day): 14.73 x10E3/uL
LYMPHOCYTE (72 h, time 3 day): 89.67%
MEAN CORPUSCULAR HEMOGLOBIN (72 h, time 3 day): 24.43 pg
MEAN CORPUSCULAR HEMOGLOBIN CONCENTRATION (72 h, time 3 day): 37.7 G/DL
MEAN CORPUSCULAR VOLUME (72 h, time 3 day): 64.7 fL
MONOCYTE (72 h, time 3 day): 1.67%
NEUTROPHIL (72 h, time 3 day): 6.33%
NUCLEATED RED BLOOD CELLS (72 h, time 3 day): 0.33 /100WBC
PLATELET COUNT (72 h, time 3 day): 1332 x10E3/uL
ALANINE AMINOTRANSFERASE (72 h, time 3 day): 42.67 u/L
ALBUMIN (72 h, time 3 day): 4.33 G/DL
ALKALINE PHOSPHATASE (72 h, time 3 day): 435.67 u/L
ASPARTATE AMINOTRANSFERASE (72 h, time 3 day): 72.33 u/L
BLOOD UREA NITROGEN (72 h, time 3 day): 16 mg/dL
CARBON DIOXIDE (72 h, time 3 day): 25.33 mmol/L
CHLORIDE (72 h, time 3 day): 104.33 MEQ/L
CHOLESTEROL (72 h, time 3 day): 60.67 mg/dL
CREATINE PHOSPHOKINASE (72 h, time 3 day): 288 u/L
CREATININE (72 h, time 3 day): 0.18 mg/dL
GLUCOSE (72 h, time 3 day): 161.67 mg/dL
LACTATE DEHYDROGENASE (72 h, time 3 day): 90.33 u/L
LIPASE (72 h, time 3 day): 9 u/L
PHOSPHORUS (72 h, time 3 day): 13.33 mg/dL
POTASSIUM (72 h, time 3 day): 6.41 MEQ/L
SODIUM (72 h, time 3 day): 144.2 MEQ/L
TOTAL BILIRUBIN (72 h, time 3 day): 0.23 mg/dL
TOTAL PROTEIN (72 h, time 3 day): 5.93 G/DL
URIC ACID (72 h, time 3 day): 1.67 mg/dL
ABSOLUTE BASOPHIL (120 h, time 5 day): 0 CELLS/uL
ABSOLUTE EOSINOPHIL (120 h, time 5 day): 53.33 CELLS/uL
ABSOLUTE LYMPHOCYTE (120 h, time 5 day): 15727.33 CELLS/uL
ABSOLUTE MONOCYTE (120 h, time 5 day): 190.67 CELLS/uL
ABSOLUTE SEGMENTED NEUTROPHIL (120 h, time 5 day): 1162 CELLS/uL
BASOPHIL (120 h, time 5 day): 0%
EOSINOPHIL (120 h, time 5 day): 0.33%
ERYTHROCYTE COUNT (120 h, time 5 day): 5.46 x10E6/uL
HEMATOCRIT (120 h, time 5 day): 35.63%
HEMOGLOBIN (120 h, time 5 day): 13.3 G/DL
LEUKOCYTE COUNT (120 h, time 5 day): 17.13 x10E3/uL
LYMPHOCYTE (120 h, time 5 day): 92%
MEAN CORPUSCULAR HEMOGLOBIN (120 h, time 5 day): 24.37 pg
MEAN CORPUSCULAR HEMOGLOBIN CONCENTRATION (120 h, time 5 day): 37.4 G/DL
MEAN CORPUSCULAR VOLUME (120 h, time 5 day): 65.13 fL
MONOCYTE (120 h, time 5 day): 1%
NEUTROPHIL (120 h, time 5 day): 6.67%
NUCLEATED RED BLOOD CELLS (120 h, time 5 day): 0 /100WBC
PLATELET COUNT (120 h, time 5 day): 1361 x10E3/uL
ALANINE AMINOTRANSFERASE (120 h, time 5 day): 50.67 u/L
ALBUMIN (120 h, time 5 day): 4 G/DL
ALKALINE PHOSPHATASE (120 h, time 5 day): 346.33 u/L
ASPARTATE AMINOTRANSFERASE (120 h, time 5 day): 79 u/L
BLOOD UREA NITROGEN (120 h, time 5 day): 17 mg/dL
CARBON DIOXIDE (120 h, time 5 day): 24.67 mmol/L
CHLORIDE (120 h, time 5 day): 108 MEQ/L
CHOLESTEROL (120 h, time 5 day): 61.67 mg/dL
CREATINE PHOSPHOKINASE (120 h, time 5 day): 409.67 u/L
CREATININE (120 h, time 5 day): 0.19 mg/dL
GLUCOSE (120 h, time 5 day): 187 mg/dL
LACTATE DEHYDROGENASE (120 h, time 5 day): 92.33 u/L
LIPASE (120 h, time 5 day): 8 u/L
PHOSPHORUS (120 h, time 5 day): 13.57 mg/dL
POTASSIUM (120 h, time 5 day): 5.82 MEQ/L
SODIUM (120 h, time 5 day): 144.9 MEQ/L
TOTAL BILIRUBIN (120 h, time 5 day): 0.27 mg/dL
TOTAL PROTEIN (120 h, time 5 day): 6.03 G/DL
URIC ACID (120 h, time 5 day): 1.67 mg/dL
